The test system of experiment [1] is Runx2 expression in C3H10T1/2 cells. Kind of experiment: Western blotting of Runx2 in C3H10T1/2 cells. The experiment is classed as cell-based, murine. Particulars: 10 nM. On the procedure: Western blotting was performed as previously described. Briefly, whole-cell extracts (WCEs) were prepared at indicated time points using RIPA lysis buffer, and aliquots of 30 μg protein per lane were loaded and resolved on SDS-PAGE (10%), followed by blotting onto the PVDF membrane (Millipore Inc., Burlington, MA, USA). The membrane was blocked in 1% BSA, followed by immunoblotting with primary antibodies: Runx2 (ab 76956) (1:1000), pGSK (9323S) (1:1000), and GSK (9315S) (1:1000) at 4 °C overnight. Anti-rabbit HRP secondary antibody (Sigma, catalog number A0545) (1:3000) was used for Runx2, pGSK3β, and GSK3β. Bands were detected by incubating the membranes with ECL substrate (Thermo Fisher Scientific, Waltham, MA, USA) and developed on ChemiDoc (Image Quant LAS 4000, GE Healthcare, Hatfield, UK). Blots were re-probed after washing with mild stripping buffer (1.5% Glycine, 0.1% SDS, and 1% Tween 20).

For experiment [2], the system named is mouse BMSCs (mBMSCs). In words: Nodule mineralization (Alizarin Red S) in mBMSCs. The format is cell-based. Particulars: 21 days post-treatment, differentiation medium. On the procedure:
(§1) Rat and mouse BMSCs were seeded at a density of 1 × 10^6 cells/well in a 6-well plate, vehicle or MTZ (1 nM) treatment was conducted, and the media were changed every alternate day for 21 days using a differentiation medium [10% FBS, β-glycerophosphate (10 mM), ascorbic acid (50 µg/mL), and dexamethasone (100 nM) in α-MEM].
(§2) Cells were fixed with 10% formalin for 15 min and stained with Alizarin Red for 1 h after 21 days of culture. Moreover, 10% cetylpyridinium chloride (Sigma #C0732) was used to quantify mineralized nodules at a 595 nm wavelength.

The test system of experiment [3] is rat BMSCs (rBMSCs). Kind of experiment: Nodule mineralization (Alizarin Red S) in rBMSCs. The format is cell-based. Particulars: 21 days post-treatment, differentiation medium. How it is done:
as §1, §2

In experiment [4] the test system is Wnt/β-catenin signaling (TOP-Flash reporter, HEK293T cells). In words: Wnt/β-catenin TOP-Flash reporter assay. To be noted: 24 h. The format is cell-based. How it is done: The effect of MTZ on β-catenin signaling was assayed using a TOP-Flash reporter plasmid that contained a minimal TA viral promoter coupled to β-catenin-responsive TCF/LEF-binding sites upstream of a firefly luciferase gene (a kind gift from Prof. Yosef Yarden, WIS, Israel). Briefly, HEK293T cells were transfected with 0.5 μg of the TOP-Flash plasmid. Additionally, the GFP-encoding plasmid, pEGFP, was transfected as a control for transfection efficiency. […] In white opaque plates, the lysate and 100 μL of luciferase assay buffer (10 mM KH2PO4, 2 mM ATP, 1 mM D-luciferin, NaCl, and MgCl2) were added, and luminescence was measured. Luminescence values were normalized by EGFP plasmid fluorescence value, and the fold-change was calculated relative to the control.
Background: A reporter such as luciferase makes a cellular process visible.

Experiment [5] has as its system Rat Calvarial Osteoblasts (RCOs). In words: ALP assay (osteoblast differentiation) in rat calvarial osteoblasts. The experiment is classed as cell-based. On the procedure:
Sequential digestion was performed to isolate calvarial osteoblast cells from neonatal rat pups. Briefly, calvariae were harvested from ten to twelve 1–2-day old rat pups, cleaned, and subjected to five sequential enzymatic digestions (0.1% dispase and 0.1% collagenase I) of 10–15 min each, followed by culturing of the harvested cells in α-MEM supplemented with 10% FBS [22].
RCOs were seeded in 24-well plates (1 × 10^4 cells/well), and the cells were treated for 48 h in osteoblast differentiation media (α-MEM supplemented with 10 mM β-glycerophosphate and 50 μg/mL ascorbic acid) with the imidazole group of chemicals (10^−11 M–10^−6 M).
A total of 2 mg/mL of para-Nitrophenyl phosphate in diethanolamine buffer was used to measure the ALP activity at a 405 nm wavelength.

In experiment [6] the test system is mouse BMSCs (mBMSCs). In words: BrdU proliferation assay in mBMSCs. Particulars: 1 nM. The experiment is classed as cell-based. How it is done: Rat and mouse bone marrow stromal cells (BMSCs) were seeded at a density of 4000 cells/well in a 96-well plate for cell proliferation and treated with 1 nM of MTZ for 48 h in a growth medium (α-MEM containing 10% FBS). Following the MTZ treatment, the cells were incubated for 4 h with bromodeoxyuridine (BrdU) before termination. Cell proliferation was assessed at 450 nm using the Roche Diagnostics BrdU ELISA kit, in accordance with the manufacturer’s protocol, using a reference wavelength of 690 nm.

Experiment [7] has as its system bone formation in femur metaphysis of OVX rats. Kind of experiment: OVX osteopenia model, dynamic bone histomorphometry (double calcein labeling). The format is in vivo, SD rats. Particulars: 235 mg/kg oral, 3 months. On the procedure: The 10-month-old (265 ± 20 g) SD rats were ovariectomized (OVX) bilaterally and left for 3 months to develop osteopenia. Ovary-intact sham-operated animals were used as a control. A live animal micro-CT was performed to confirm osteopenia, followed by dividing the animals into 3 groups: Sham + vehicle (water, oral), OVX + vehicle (water, oral), and OVX + MTZ (235 mg/kg, oral). Each group had 9 rats, and treatment were administered for 3 months. Calcein (20 mg/kg, s.c.) was injected twice before sacrificing at 10-day intervals.
Two calcein injections were spaced ten days apart for double calcein labeling to perform dynamic histomorphometric assessments. A previously published protocol was used to calculate the bone formation rate/total bone surface (BFR/BS), mineralizing surface/bone surface (MS/BS), and mineral apposition rate (MAR).

In experiment [8] the test system is C3H10T1/2 cells. Kind of experiment: Nodule mineralization (Alizarin Red S) in C3H10T1/2 cells. The format is cell-based, murine. To be noted: 21 days, differentiation medium. How it is done: In a different set of experiments, 3 × 10^6 C3H10T1/2 cells were seeded in a 60 mm culture dish. Then, 24 h post-seeding, the vehicle or MTZ treatment was conducted, and the media were changed every alternate day for 21 days using a differentiation medium.
as §2

The subject of experiment [9] is β-catenin nuclear translocation in osteoblasts (RCO). Kind of experiment: Immunofluorescence of β-catenin nuclear translocation in RCO. The format is cell-based, rat. Particulars: 10 nM. How it is done:
RCOs were grown on Lab-Tek Chamber Slides (Nunc, Penfield, NY, USA) to 40–50% confluence for 24 h. After treatment with MTZ at different time points, cells were fixed with 4% formaldehyde, followed by permeabilization with 0.1% Triton™ X-100 for 15 min, blocked with 2% goat serum for 2 h, and labeled with primary antibody against β-catenin (Cell Signaling Technology, Danvers, MA, USA, catalog number 9562S) (1:100) overnight at 4 °C in a moist chamber. Alexa Fluor® 594 (Abcam, Cambridge, UK, catalog number ab150080) was used as a secondary antibody (1:200 dilution) for 2 h at room temperature. […]

On to `Cc1ncc([N+](=O)[O-])n1CCO` [Metronidazole], for which the Runx2 expression result in experiment [1] is given as “increased”. Besides, in experiment [2], the “Osteogenic differentiation and mineralized nodule formation” value is listed as “stimulated”. Moreover, the “Osteogenic differentiation and mineralized nodule formation” value in experiment [3] is on record as “stimulated”. Moreover, in [4], the TOP-Flash reporter activity entry is reported as “increased”. For the same compound, in experiment [5] (48 h), the “Activity in ALP Assay (Positive/Negative)” value is recorded as “Positive” and the “Effect on ALP activity compared to the control (vehicle)” value was “significantly increased”. Moreover, in experiment [5] (Rattus norvegicus, Calvarial osteoblast, 48 h in osteoblast differentiation media), the EC50 is 1.2 nM. The “Proliferation (BrdU incorporation)” value in [6] is “did not affect”. Also, in experiment [7], the BFR result is “reversed all parameters to sham levels”, the MAR entry was “reversed all parameters to sham levels” and the MS/BS result is “reversed all parameters to sham levels”. For the same compound, the Mineralization entry in experiment [8] is “promoted mineralization”. The β-catenin nuclear translocation result in [9] was “induced”.

The EC50 is the midpoint of the concentration-response curve. The low end stands for a more potent agent, the high end for a less potent agent.

(Values after paper PMC11274654 (Biomedicines, 2024).)
